# Where “and” joins values, the source holds several entries; their conditions need not be identical. Equal values may be shown once.
# Tests used:
# Assay type in all cases: cell-based
# H1299 = experiment: MTT assay, growth inhibition by deguelin or deguelin derivatives; conditions: 3 days
# H596 = experiment: as above; conditions: 3 days
# H460 = experiment: as above; conditions: 3 days
# H358 = experiment: as above; conditions: 3 days
# A549 = experiment: as above; conditions: 3 days
# H322 = experiment: as above; conditions: 3 days
# NSCLC cells = experiment: MTT assay, growth inhibition of NSCLC cells by deguelin and deguelin derivatives (Table 2, FIG. 7); conditions: 0.01-1 μM, 3 days
structure (smiles),measurement,setting,value
COc1cc2c(cc1OC)[C@]1(O)C(=O)c3ccc4c(c3O[C@@H]1CO2)C=CC(C)(C)O4 [tephrosin],"MTT assay reading, Average","H1299; H1299, 0.01 μM",0.4143
same,"MTT assay reading, individual replicate","H1299; H1299, 0.01 μM",0.38 and 0.248 and 0.428 and 0.399 and 0.471 and 0.527 and 0.447
same,"MTT assay reading, Average","H1299; H1299, 0.1 μM",0.7746
same,"MTT assay reading, individual replicate","H1299; H1299, 0.1 μM",0.795 and 0.806 and 0.783 and 0.784 and 0.956 and 0.491 and 0.807
same,"MTT assay reading, Average","H1299; H1299, 0.5 μM",0.1507
same,"MTT assay reading, individual replicate","H1299; H1299, 0.5 μM",0.135 and 0.147 and 0.166 and 0.204 and 0.179 and 0.097 and 0.127
same,"MTT assay reading, Average","H1299; H1299, 1 μM",0.2739
same,"MTT assay reading, individual replicate","H1299; H1299, 1 μM",0.261 and 0.279 and 0.255 and 0.26 and 0.36 and 0.183 and 0.319
same,"MTT assay reading, Average","H596; H596, 0.01 μM",0.1156
same,"MTT assay reading, individual replicate","H596; H596, 0.01 μM",0.062 and 0.127 and 0.078 and 0.138 (2×) and 0.103 and 0.163
same,"MTT assay reading, Average","H596; H596, 0.1 μM",0.0826
same,"MTT assay reading, individual replicate","H596; H596, 0.1 μM",0.082 and 0.062 and 0.066 and 0.095 and 0.09 and 0.058 and 0.125
same,"MTT assay reading, Average","H596; H596, 0.5 μM",0.1631
same,"MTT assay reading, individual replicate","H596; H596, 0.5 μM",0.137 and 0.159 and 0.151 and 0.111 and 0.158 and 0.076 and 0.35
same,"MTT assay reading, Average","H596; H596, 1 μM",0.1983
same,"MTT assay reading, individual replicate","H596; H596, 1 μM",0.287 and 0.257 and 0.172 and 0.151 and 0.215 and 0.131 and 0.175
same,% control,"H460; H460, 0.01 μM",0.05%
same,"MTT assay reading, Average","H460; H460, 0.01 μM",0.0956
same,"MTT assay reading, individual replicate","H460; H460, 0.01 μM",0.072 and 0.051 and 0.097 and 0.1 and 0.105 and 0.132 and 0.112
same,% control,"H460; H460, 0.1 μM",0.05%
same,"MTT assay reading, Average","H460; H460, 0.1 μM",0.0816
same,"MTT assay reading, individual replicate","H460; H460, 0.1 μM",0.072 and 0.067 and 0.086 (2×) and 0.112 and 0.056 and 0.092
same,% control,"H460; H460, 0.5 μM",0.08%
same,"MTT assay reading, Average","H460; H460, 0.5 μM",0.141
same,"MTT assay reading, individual replicate","H460; H460, 0.5 μM",0.088 and 0.113 (2×) and 0.159 and 0.16 and 0.19 and 0.164
same,% control,"H460; H460, 1 μM",0.10%
same,"MTT assay reading, Average","H460; H460, 1 μM",0.1819
same,"MTT assay reading, individual replicate","H460; H460, 1 μM",0.162 and 0.184 and 0.154 and 0.272 and 0.183 and 0.133 and 0.185
same,"MTT assay reading, Average","H358; H358, 0.01 μM",0.6206
same,"MTT assay reading, individual replicate","H358; H358, 0.01 μM",0.508 and 0.601 and 0.658 and 0.674 and 0.608 and 0.59 and 0.705
same,"MTT assay reading, Average","H358; H358, 0.1 μM",0.5327
same,"MTT assay reading, individual replicate","H358; H358, 0.1 μM",0.522 and 0.496 (2×) and 0.558 and 0.516 and 0.579 and 0.562
same,"MTT assay reading, Average","H358; H358, 0.5 μM",0.1047
same,"MTT assay reading, individual replicate","H358; H358, 0.5 μM",0.054 and 0.048 and 0.1 and 0.105 and 0.117 and 0.147 and 0.162
same,"MTT assay reading, Average","H358; H358, 1 μM",0.2634
same,"MTT assay reading, individual replicate","H358; H358, 1 μM",0.245 and 0.233 and 0.332 and 0.139 and 0.234 and 0.293 and 0.368
same,% control,"A549; A549, 0.01 μM",0.16%
same,"MTT assay reading, Average","A549; A549, 0.01 μM",0.2403
same,"MTT assay reading, individual replicate","A549; A549, 0.01 μM",0.274 and 0.196 and 0.223 and 0.284 and 0.229 and 0.252 and 0.224
same,% control,"A549; A549, 0.1 μM",0.17%
same,"MTT assay reading, Average","A549; A549, 0.1 μM",0.248
same,"MTT assay reading, individual replicate","A549; A549, 0.1 μM",0.161 and 0.279 and 0.299 and 0.218 and 0.262 and 0.236 and 0.281
same,% control,"A549; A549, 0.5 μM",0.17%
same,"MTT assay reading, Average","A549; A549, 0.5 μM",0.255
same,"MTT assay reading, individual replicate","A549; A549, 0.5 μM",0.299 and 0.243 and 0.26 and 0.217 (2×) and 0.305 and 0.244
same,% control,"A549; A549, 1 μM",0.23%
same,"MTT assay reading, Average","A549; A549, 1 μM",0.3313
same,"MTT assay reading, individual replicate","A549; A549, 1 μM",0.434 and 0.15 and 0.366 and 0.295 and 0.386 and 0.341 and 0.347
same,"MTT assay reading, Average","H322; H322, 0.01 μM",0.6627
same,"MTT assay reading, individual replicate","H322; H322, 0.01 μM",0.527 and 0.596 and 0.713 and 0.655 and 0.68 and 0.721 and 0.747
same,"MTT assay reading, Average","H322; H322, 0.1 μM",0.7197
same,"MTT assay reading, individual replicate","H322; H322, 0.1 μM",0.685 and 0.659 and 0.726 and 0.643 and 0.732 and 0.795 and 0.798
same,"MTT assay reading, Average","H322; H322, 0.5 μM",0.1343
same,"MTT assay reading, individual replicate","H322; H322, 0.5 μM",0.113 and 0.109 (2×) and 0.12 and 0.117 and 0.162 and 0.21
same,"MTT assay reading, Average","H322; H322, 1 μM",0.2089
same,"MTT assay reading, individual replicate","H322; H322, 1 μM",0.223 and 0.216 (3×) and 0.182 and 0.168 and 0.241
same,"inhibiting cell growth in NSCLC cells, ranking among the derivatives",NSCLC cells,most effective
